Assay results reported in patent US12089595B2, “Pseudomonas strains and their metabolites to control plant diseases” (T3 Bioscience, Inc., priority 2020, dated 2024).
Values after ≈ are worked out from the molar mass of the structure shown. Read-outs that look alike come from different tables or passages of the source.

Assays:
Dickeya dadantii 3937 = assay: MIC antimicrobial assay (CLSI, 96 well plates); assay type: cell-based; details: Dickeya dadantii 3937 (soft rot)
[1] = tested on: Erwinia amylovora 898 (streptomycin-resistant); assay: microbe, parasite or virus in culture; assay type: cell-based
E. amylovora 110 = assay: Greenhouse blossom blight assay on crabapples trees (RejuAgro A); assay type: in vivo, Erwinia amylovora
Description: To evaluate the biological control activity of RejuAgro A against Erwinia amylovora, greenhouse infection assay on crabapples trees was conducted at the University of Wisconsin-Milwaukee. Ten μg/mL was supplemented with 1% Polyethylene glycol (PEG) 4000 or 1% PEG4000 (negative control) were applied on full bloom trees flowers 3 hours prior to the inoculation and 24 hours post-inoculation. Approximately 10^8 CFU/mL of E. amylovora 110 strain resuspended in water was used as inoculum. The infection rate was calculated at around day 6 post inoculation. RejuAgro A can effectively suppress the blossom blight (Table 6).

[2] = tested on: Pectobacterium atrosepticum 942; assay: MIC antimicrobial assay (CLSI, 96 well plates); assay type: cell-based; details: Pectobacterium atrosepticum 942 (soft rot)
[3] = tested on: P. syringae (pv. tomato PT30, pv syringae 7046, pv. lachrymans 1188-1); assay: MIC antimicrobial assay; details: Pseudomonas syringae
[4] = tested on: Pseudomonas syringae pv syringae 7046; assay: MIC antimicrobial assay (CLSI, 96 well plates); assay type: cell-based; details: Pseudomonas syringae pv syringae 7046 (Bacterial canker or blast)
[5] = tested on: Xanthomonas axonopodis pv. citri-Miami XC2002-00010; assay: MIC antimicrobial assay (CLSI, 96 well plates); assay type: cell-based
[6] = tested on: Pectobacterium carotovorum subsp. brasiliensis 944; assay: MIC antimicrobial assay (CLSI, 96 well plates); assay type: cell-based; details: Pectobacterium carotovorum subsp. brasiliensis 944 (soft rot)
[7] = tested on: Clavibacter michiganensis subsp. michiganensis Cmm 0317; assay: MIC antimicrobial assay (CLSI, 96 well plates); assay type: cell-based
[8] = tested on: X. arboricola pv. Juglandis Xaj417; assay: microbe, parasite or virus in culture; assay type: cell-based, Xanthomonas arboricola pv. Juglandis; details: Xanthomonas arboricola, read-out: Diameter of the zone of inhibition
[9] = tested on: Pseudomonas syringae pv. tomato PT30; assay: MIC antimicrobial assay (CLSI, 96 well plates); assay type: cell-based; details: Pseudomonas syringae pv. tomato PT30 (Tomato bacterial speck)
[10] = tested on: Xanthomonas campestris pv. vesicatoria XV-16; assay: MIC antimicrobial assay (CLSI, 96 well plates); assay type: cell-based; details: Xanthomonas campestris pv. vesicatoria XV-16 (Tomato bacterial spot)
[11] = tested on: X. arboricola pv. Juglandis Xaj219; assay: microbe, parasite or virus in culture; assay type: cell-based, Xanthomonas arboricola pv. Juglandis; details: Xanthomonas arboricola, read-out: Diameter of the zone of inhibition
[12] = tested on: Pectobacterium parmentieri UPP163 936; assay: MIC antimicrobial assay (CLSI, 96 well plates); assay type: cell-based; details: UPP163936; Pectobacterium parmentieri UPP163 936 (soft rot)
[13] = tested on: Xanthomonas axonopodis pv. citri N40-SO5; assay: MIC antimicrobial assay (CLSI, 96 well plates); assay type: cell-based
Erwinia amylovora 1189 = assay: MIC antimicrobial assay (CLSI, 96 well plates); assay type: cell-based
[14] = tested on: Clavibacter michiganensis subsp. michiganensis Cmm 0690; assay: MIC antimicrobial assay (CLSI, 96 well plates); assay type: cell-based
[15] = tested on: Pseudomonas savastanoi pv. savastanoi; assay: MIC antimicrobial assay (CLSI, 96 well plates); assay type: cell-based
R. solanacearum K60 = assay: microbe, parasite or virus in culture; assay type: cell-based; details: Ralstonia solanacearum, K60, read-out: Diameter of the zone of inhibition
[16] = tested on: Erwinia amylovora CA11 (streptomycin-resistant); assay: microbe, parasite or virus in culture; assay type: cell-based
[17] = tested on: Pectobacterium carotovorum subsp. carotovorum wpp14 945; assay: MIC antimicrobial assay (CLSI, 96 well plates); assay type: cell-based; details: Pectobacterium carotovorum subsp. carotovorum wpp14 945 (soft rot)
[18] = tested on: Erwinia amylovora DM1 (streptomycin-resistant); assay: microbe, parasite or virus in culture; assay type: cell-based
E coli O157:H7 = assay: MIC antimicrobial assay (CLSI, 96 well plates); assay type: cell-based
Erwinia amylovora 110 = assay: microbe, parasite or virus in culture; assay type: cell-based
E. amylovora = assay: Plate diffusion assay in LB plates; assay type: cell-based, Erwinia amylovora; details: 2 mg/mL; for zone of inhibition at 2000 µg/mL: Erwinia amylovora, read-out: Diameter of the Inhibitory zone
Text: Two assays were used for the antimicrobial test of 0617-T307 cell broth and metabolites. One is plate diffusion assay and the other one is microplate assay. LB plate was used for the plate diffusion assay of the antimicrobial activity of RejuAgro A containing fractions and cell broths against E. amylovora (Table 3).

[19] = tested on: Pseudomonas syringae pv. lachrymans 1188-1; assay: MIC antimicrobial assay (CLSI, 96 well plates); assay type: cell-based; details: Pseudomonas syringae pv. lachrymans 1188-1 (Angular Leaf Spot of Cucurbits)
[20] = tested on: Clavibacter michiganensis subsp. michiganensis NCPPB382; assay: MIC antimicrobial assay (CLSI, 96 well plates); assay type: cell-based
[21] = tested on: Pseudomonas soli 0617-T307; assay: MIC antimicrobial assay (CLSI, 96 well plates)
[22] = tested on: Xanthomonas campestris pv. Pruni; assay: MIC antimicrobial assay (CLSI, 96 well plates); assay type: cell-based; details: Xanthomonas campestris pv. Pruni (Bacterial Spot of Peach)
[23] = tested on: Flavobacterium columnare #2; assay: MIC antimicrobial assay (CLSI, 96 well plates); assay type: cell-based; details: Flavobacterium columnare #2 (Fish columnaris disease), TYES
[24] = tested on: Methicillin-resistant staphylococcus aureus USA300; assay: microbe, parasite or virus in culture; assay type: cell-based
[25] = tested on: Xanthomonas bacteria (Xanthomonas axonopodis pv. citri); assay: MIC antimicrobial assay; assay type: cell-based
[26] = tested on: Xanthomonas arboricola pv. Juglandis 219; assay: MIC antimicrobial assay (CLSI, 96 well plates); assay type: cell-based
[27] = Staphylococcus aureus, MRSA / USA300

Row | SMILES | MIC (Dickeya dadantii 3937) [mg/L] | MIC ([1]; Erwinia amylovora) [mg/L] | MIC [2] [mg/L] | MIC [3] [mg/L] | MIC [4] [mg/L] | MIC [5] [mg/L] | MIC [6] [mg/L] | MIC [7] [mg/L] | MIC [9] [mg/L] | MIC [10] [mg/L] | MIC [12] [mg/L] | MIC [13] [mg/L] | MIC [14] [mg/L] | MIC ([16]; Erwinia amylovora) [mg/L] | MIC [17] [mg/L] | MIC ([18]; Erwinia amylovora) [mg/L] | MIC (E coli O157:H7) [mg/L] | MIC (Erwinia amylovora 110) [mg/L] | zone of inhibition at 2000 µg/mL (E. amylovora) [mm] | MIC [19] [mg/L] | also measured
1 | CSC1=C(C)C(=O)C(=O)NC1=O [RejuAgro A] | 40 (≈ 216 µM) | 10 (≈ 54 µM) | 20 (≈ 108 µM) | 40 (≈ 216 µM) | 20 (≈ 108 µM) | 5 (≈ 27 µM) | 40 (≈ 216 µM) | 1.56 (≈ 8.42 µM) | 40 (≈ 216 µM) | 2.5 (≈ 13.5 µM) | 40 (≈ 216 µM) | 5 (≈ 27 µM) | 12.5 (≈ 67.5 µM) | 10 (≈ 54 µM) | 40 (≈ 216 µM) | 10 (≈ 54 µM) | 40 (≈ 216 µM) | 5 (≈ 27 µM) | 11 | 10 (≈ 54 µM) | Infection rate (E. amylovora 110; 10 μg/mL with 1% PEG4000, 3 hours prior and 24 hours post-inoculation, around day 6, negative control 50.8%): 12.3%; zone of inhibition at 2000 µg/mL [8]: 10 mm; zone of inhibition at 2000 µg/mL [11]: 5 mm; MIC (Erwinia amylovora 1189; Erwinia amylovora, 1189, Erwinia amylovora 1189 (Fire blight on apples/pears)): 5 mg/L (≈ 27 µM); MIC ([15]; Pseudomonas savastanoi): 40 mg/L (≈ 216 µM); zone of inhibition at 2000 µg/mL (R. solanacearum K60): 4 mm; Diameter of the Inhibitory zone (E. amylovora): showed the antimicrobial activity; MIC [20]: 6.25 mg/L (≈ 33.7 µM); MIC ([21]; Pseudomonas soli 0617-T307 (RejuAgro A producer), LB media): >40 mg/L; MIC ([21]; Pseudomonas soli, 0617T307): > 40 mg/L; MIC ([22]; read-out: MIC): 40 mg/L (≈ 216 µM); MIC [23]: 5 mg/L (≈ 27 µM); MIC ([24]; MRSA USA300 (Skin infection, sepsis)): >40 mg/L; MIC [24, 27]: > 40 mg/L; MIC [25]: 5 mg/L (≈ 27 µM); MIC ([26]; Xanthomonas arboricola): 6.25 mg/L (≈ 33.7 µM)
2 | [H]/N=C(/N)N[C@H]1[C@H](O)[C@@H](O)[C@H](O[C@@H]2O[C@@H](C)[C@](O)(C=O)[C@H]2O[C@@H]2O[C@@H](CO)[C@H](O)[C@@H](O)[C@@H]2NC)[C@@H](N/C(N)=N\[H])[C@@H]1O [Streptomycin, reference compound] | 20 (≈ 34.4 µM) | > 40 | 20 (≈ 34.4 µM) | 2.5 to 5 (≈ 4.3 to 8.6 µM) | 2.5 (≈ 4.3 µM) | 0.16 (≈ 0.275 µM) | 40 (≈ 68.8 µM) | 3.12 (≈ 5.36 µM) | 2.5 (≈ 4.3 µM) | 20 (≈ 34.4 µM) | 40 (≈ 68.8 µM) | 0.16 (≈ 0.275 µM) | 12.5 (≈ 21.5 µM) | > 40 | 40 (≈ 68.8 µM) | > 40 | 20 (≈ 34.4 µM) | 5 (≈ 8.6 µM) | 24 | 5 (≈ 8.6 µM) | MIC ([1]; Erwinia amylovora 898, spontaneous streptomycin-resistant): >40 mg/L; Infection rate (E. amylovora 110; 200 μg/mL, around day 6 post inoculation): 5.7%; zone of inhibition at 100 µg/mL [8]: 19 mm; zone of inhibition at 100 µg/mL [11]: 13 mm; MIC (Erwinia amylovora 1189; Erwinia amylovora 1189 (Fire blight on apples/pears)): 20 mg/L (≈ 34.4 µM); MIC (Erwinia amylovora 1189; Erwinia amylovora, 1189, Erwinia amylovora 1189 (Fire blight on apples/pears), read-out: MIC): 10 mg/L (≈ 17.2 µM); MIC ([15]; Pseudomonas savastanoi pv. savastanoi (Olive knot), read-out: MIC): 0.31 mg/L (≈ 0.533 µM); zone of inhibition at 100 µg/mL (R. solanacearum K60): 15 mm; MIC ([16]; Erwinia amylovora CA11, streptomycin-resistant): >40 mg/L; MIC ([18]; Erwinia amylovora DM1, streptomycin-resistant): >40 mg/L; MIC [20]: 12.5 mg/L (≈ 21.5 µM); MIC ([21]; Pseudomonas soli, 0617T307): > 40 mg/L; MIC [22]: >40 mg/L; MIC ([22]; read-out: MIC): > 40 mg/L; MIC [23]: 0.31 mg/L (≈ 0.533 µM); MIC [24, 27]: 10 mg/L (≈ 17.2 µM); MIC [25]: 0.16 mg/L (≈ 0.275 µM); MIC ([26]; Xanthomonas arboricola pv. Juglandis 219 (walnut blight), read-out: MIC): 0.39 mg/L (≈ 0.671 µM)
